Test results: patent publication US9260439B2, “Dihydropyrrolopyrimidine derivatives” (PFIZER INC., priority 2014, dated 2016)

Target: truncated PI3Kα (p110α/iSH2 p85α) (Homo sapiens (Human), UniProt P42336)
Test: PI3KA_Act fluorescence polarization kinase assay (Ki)
Type: biochemical
Conditions: 1 mM ATP
Method in brief: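 Ki values result from fitting fluorescence polarization signals to the Morrison equation for tight-binding competitive inhibitors. The detector was GST-Grp1 PH domain with TAMRA-PIP3, read after a 30 min room-temperature reaction of 0.5 nM truncated PI3Kα and 30 μM PIP2 at pH 7.4 in HEPES/NaCl/MgCl2/DTT/CHAPS buffer. Compounds were tested as 12-point 3-fold dilutions from 3 μM.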

Sequence of truncated PI3Kα (p110α/iSH2 p85α) (P42336 whole entry, the tested form may be a part): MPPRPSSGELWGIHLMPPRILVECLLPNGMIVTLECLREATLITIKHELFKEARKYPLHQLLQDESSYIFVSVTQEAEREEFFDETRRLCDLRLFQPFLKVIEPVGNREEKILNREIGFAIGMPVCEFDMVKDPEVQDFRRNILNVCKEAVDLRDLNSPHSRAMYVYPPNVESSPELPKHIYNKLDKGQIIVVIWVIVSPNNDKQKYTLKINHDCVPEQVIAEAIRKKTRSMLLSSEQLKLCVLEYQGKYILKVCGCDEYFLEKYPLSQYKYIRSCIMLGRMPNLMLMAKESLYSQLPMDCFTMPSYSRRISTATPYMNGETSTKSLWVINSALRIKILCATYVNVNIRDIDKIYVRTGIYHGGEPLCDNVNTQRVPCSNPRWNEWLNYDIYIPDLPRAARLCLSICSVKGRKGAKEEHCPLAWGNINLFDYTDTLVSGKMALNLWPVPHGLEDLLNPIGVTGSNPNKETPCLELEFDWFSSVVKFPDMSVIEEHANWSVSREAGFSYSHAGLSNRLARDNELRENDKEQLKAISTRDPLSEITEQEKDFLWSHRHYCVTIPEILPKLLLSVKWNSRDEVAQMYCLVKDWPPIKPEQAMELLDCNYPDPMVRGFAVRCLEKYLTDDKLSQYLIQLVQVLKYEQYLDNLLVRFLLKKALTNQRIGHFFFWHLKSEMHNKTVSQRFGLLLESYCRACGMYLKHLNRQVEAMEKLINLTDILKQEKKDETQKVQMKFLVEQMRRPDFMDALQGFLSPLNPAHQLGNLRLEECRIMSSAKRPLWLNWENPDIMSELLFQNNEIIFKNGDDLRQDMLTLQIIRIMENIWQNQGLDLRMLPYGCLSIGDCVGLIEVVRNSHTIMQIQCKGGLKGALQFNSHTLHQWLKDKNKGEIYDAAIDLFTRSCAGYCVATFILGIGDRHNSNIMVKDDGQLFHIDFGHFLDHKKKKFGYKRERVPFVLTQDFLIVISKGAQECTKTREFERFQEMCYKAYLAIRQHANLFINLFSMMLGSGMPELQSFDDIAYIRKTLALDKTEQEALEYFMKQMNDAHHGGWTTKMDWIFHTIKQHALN

`CN1CC[C@@H](OC(=O)N2CC[C@](C)(N3CCc4c(-c5cnc(N)nc5)nc(N5CCOCC5)nc43)C2)C1` [Example 416, (3R)-1-methylpyrrolidin-3-yl (3S)-3-[4-(2-aminopyrimidin-5-yl)-2-(morpholin-4-yl)-5,6-dihydro-7H-pyrrolo[2,3-d]pyrimidin-7-yl]-3-methylpyrrolidine-1-carboxylate] was tested, and the “PI3KA_Act Ki” value was <18 pM.
`CN1CC[C@H](OC(=O)N2CC[C@](C)(N3CCc4c(-c5cnc(N)nc5)nc(N5CCOCC5)nc43)C2)C1` [Example 417, (3S)-1-methylpyrrolidin-3-yl (3S)-3-[4-(2-aminopyrimidin-5-yl)-2-(morpholin-4-yl)-5,6-dihydro-7H-pyrrolo[2,3-d]pyrimidin-7-yl]-3-methylpyrrolidine-1-carboxylate] was tested, and the “PI3KA_Act Ki” value was <18 pM.
With `CN1CC[C@](C)(N2CCc3c(-c4cnc(N)nc4)nc(N4CCOCC4)nc32)C1` [Example 418, 5-{7-[(3S)-1,3-dimethylpyrrolidin-3-yl]-2-(morpholin-4-yl)-6,7-dihydro-5H-pyrrolo[2,3-d]pyrimidin-4-yl}pyrimidin-2-amine] the “PI3KA_Act Ki” value was 320 pM.
With `CN1CC[C@@](C)(N2CCc3c(-c4cnc(N)nc4)nc(N4CCOCC4)nc32)C1` [Example 419, 5-{7-[(3R)-1,3-dimethylpyrrolidin-3-yl]-2-(morpholin-4-yl)-6,7-dihydro-5H-pyrrolo[2,3-d]pyrimidin-4-yl}pyrimidin-2-amine] the “PI3KA_Act Ki” value was 1990 pM.
For `CC(C)N1CC[C@](C)(N2CCc3c(-c4cnc(N)nc4)nc(N4CCOCC4)nc32)C1` [Example 420, 5-{7-[(3S)-3-methyl-1-(propan-2-yl)pyrrolidin-3-yl]-2-(morpholin-4-yl)-6,7-dihydro-5H-pyrrolo[2,3-d]pyrimidin-4-yl}pyrimidin-2-amine], the “PI3KA_Act Ki” value was 601 pM.
In the case of `C[C@]1(N2CCc3c(-c4cnc(N)nc4)nc(N4CCOCC4)nc32)CCN(CC(F)F)C1` [Example 421, 5-{7-[(3S)-1-(2,2-difluoroethyl)-3-methylpyrrolidin-3-yl]-2-(morpholin-4-yl)-6,7-dihydro-5H-pyrrolo[2,3-d]pyrimidin-4-yl}pyrimidin-2-amine], the “PI3KA_Act Ki” value is reported as 71 pM.
In the case of `CC(C)(O)CN1CC[C@](C)(N2CCc3c(-c4cnc(N)nc4)nc(N4CCOCC4)nc32)C1` [Example 422, 1-{(3S)-3-[4-(2-aminopyrimidin-5-yl)-2-(morpholin-4-yl)-5,6-dihydro-7H-pyrrolo[2,3-d]pyrimidin-7-yl]-3-methylpyrrolidin-1-yl}-2-methylpropan-2-ol], the “PI3KA_Act Ki” value is reported as 415 pM.
In the case of `COC(=O)C(C)(C)N1CC[C@](C)(N2CCc3c(-c4cnc(N)nc4)nc(N4CCOCC4)nc32)C1` [Example 423, methyl 2-{(3S)-3-[4-(2-aminopyrimidin-5-yl)-2-(morpholin-4-yl)-5,6-dihydro-7H-pyrrolo[2,3-d]pyrimidin-7-yl]-3-methylpyrrolidin-1-yl}-2-methylpropanoate], the “PI3KA_Act Ki” value is reported as 445 pM.
For `CC(C)(C(N)=O)N1CC[C@](C)(N2CCc3c(-c4cnc(N)nc4)nc(N4CCOCC4)nc32)C1` [Example 424, 2-{(3S)-3-[4-(2-aminopyrimidin-5-yl)-2-(morpholin-4-yl)-5,6-dihydro-7H-pyrrolo[2,3-d]pyrimidin-7-yl]-3-methylpyrrolidin-1-yl}-2-methylpropanamide], the “PI3KA_Act Ki” value was 321 pM.
For `C[C@]1(N2CCc3c(-c4cnc(N)nc4)nc(N4CCOCC4)nc32)CCN(C2CCCC2)C1` [Example 425, 5-{7-[(3S)-1-cyclopentyl-3-methylpyrrolidin-3-yl]-2-(morpholin-4-yl)-6,7-dihydro-5H-pyrrolo[2,3-d]pyrimidin-4-yl}pyrimidin-2-amine], the “PI3KA_Act Ki” value was 311 pM.
For `CC1(N2CCc3c(-c4cnc(N)nc4)nc(N4CCOCC4)nc32)CCNCC1.Cl` [Example 430, 5-[7-(4-methylpiperidin-4-yl)-2-(morpholin-4-yl)-6,7-dihydro-5H-pyrrolo[2,3-d]pyrimidin-4-yl]pyrimidin-2-amine hydrochloride], the “PI3KA_Act Ki” value was 785 pM.
With `CC(C)(C)OC(=O)N1CCC(C)(N2CCc3c(-c4cnc(N)nc4)nc(N4CCOCC4)nc32)CC1` [Example 433, tert-butyl 4-[4-(2-aminopyrimidin-5-yl)-2-(morpholin-4-yl)-5,6-dihydro-7H-pyrrolo[2,3-d]pyrimidin-7-yl]-4-methylpiperidine-1-carboxylate] the “PI3KA_Act Ki” value was 24 pM.
`CS(=O)(=O)N1C[C@H]2C[C@@]2(N2CCc3c(-c4cnc(N)nc4)nc(N4CCOCC4)nc32)C1` [Example 436, 5-{7-[(1S,5R)-3-(methylsulfonyl)-3-azabicyclo[3.1.0]hex-1-yl]-2-(morpholin-4-yl)-6,7-dihydro-5H-pyrrolo[2,3-d]pyrimidin-4-yl}pyrimidin-2-amine] was tested, and the “PI3KA_Act Ki” value was 189 pM.
In the case of `CS(=O)(=O)N1C[C@@H]2C[C@]2(N2CCc3c(-c4cnc(N)nc4)nc(N4CCOCC4)nc32)C1` [Example 437, 5-{7-[(1R,5S)-3-(methylsulfonyl)-3-azabicyclo[3.1.0]hex-1-yl]-2-(morpholin-4-yl)-6,7-dihydro-5H-pyrrolo[2,3-d]pyrimidin-4-yl}pyrimidin-2-amine], the “PI3KA_Act Ki” value is reported as 603 pM.
Molecule `CC(C)(C)OC(=O)N1C[C@@H]2C[C@H]1[C@H]2N1CCc2c(-c3cnc(N)nc3)nc(N3CCOCC3)nc21` [Example 438, tert-butyl (1S,4S,5S)-5-[4-(2-aminopyrimidin-5-yl)-2-(morpholin-4-yl)-5,6-dihydro-7H-pyrrolo[2,3-d]pyrimidin-7-yl]-2-azabicyclo[2.1.1] hexane-2-carboxylate] has a Ki of 7450 pM.
`CS(=O)(=O)N1C[C@@H]2C[C@H]1[C@H]2N1CCc2c(-c3cnc(N)nc3)nc(N3CCOCC3)nc21` [Example 441, 5-{7-[(1S,4S,5S)-2-(methylsulfonyl)-2-azabicyclo[2.1.1]hex-5-yl]-2-(morpholin-4-yl)-6,7-dihydro-5H-pyrrolo[2,3-d]pyrimidin-4-yl}pyrimidin-2-amine] was tested, and the Ki was 432 pM.
With `C[C@H]1COCCN1c1nc(-c2cnc(N)nc2)c2c(n1)N([C@H]1C[C@@H](N)C1)CC2.Cl` [Example 442, 5-{7-(cis-3-aminocyclobutyl)-2-[(3S)-3-methylmorpholin-4-yl]-6,7-dihydro-5H-pyrrolo[2,3-d]pyrimidin-4-yl}pyrimidin-2-amine hydrochloride] the “PI3KA_Act Ki” value was 1349 pM.
In the case of `C[C@H]1COCCN1c1nc(-c2cnc(N)nc2)c2c(n1)N([C@H]1C[C@H](N)C1)CC2.Cl` [Example 443, 5-{7-(trans-3-aminocyclobutyl)-2-[(3S)-3-methylmorpholin-4-yl]-6,7-dihydro-5H-pyrrolo[2,3-d]pyrimidin-4-yl}pyrimidin-2-amine hydrochloride], the “PI3KA_Act Ki” value is reported as 944 pM.
For `CN[C@H]1C[C@@H](N2CCc3c(-c4cnc(N)nc4)nc(N4CCOC[C@@H]4C)nc32)C1.Cl` [Example 444, 5-{7-[cis-3-(methylamino)cyclobutyl]-2-[(3S)-3-methylmorpholin-4-yl]-6,7-dihydro-5H-pyrrolo[2,3-d]pyrimidin-4-yl}pyrimidin-2-amine hydrochloride], the “PI3KA_Act Ki” value was 2125 pM.
For `CN[C@H]1C[C@H](N2CCc3c(-c4cnc(N)nc4)nc(N4CCOC[C@@H]4C)nc32)C1.Cl` [Example 445, 5-{7-[trans-3-(methylamino)cyclobutyl]-2-[(3S)-3-methylmorpholin-4-yl]-6,7-dihydro-5H-pyrrolo[2,3-d]pyrimidin-4-yl}pyrimidin-2-amine hydrochloride], the “PI3KA_Act Ki” value was 993 pM.
For `C[C@H]1COCCN1c1nc(-c2cnc(N)nc2)c2c(n1)N([C@H]1C[C@H](NC(=O)OC(C)(C)C)C1)CC2` [Example 446, tert-butyl (trans-3-{4-(2-aminopyrimidin-5-yl)-2-[(3S)-3-methylmorpholin-4-yl]-5,6-dihydro-7H-pyrrolo[2,3-d]pyrimidin-7-yl}cyclobutyl)carbamate], the “PI3KA_Act Ki” value was 433 pM.
`C[C@H]1COCCN1c1nc(-c2cnc(N)nc2)c2c(n1)N([C@H]1C[C@@H](NC(=O)OC(C)(C)C)C1)CC2` [Example 447, tert-butyl (cis-3-{4-(2-aminopyrimidin-5-yl)-2-[(3S)-3-methylmorpholin-4-yl]-5,6-dihydro-7H-pyrrolo[2,3-d]pyrimidin-7-yl}cyclobutyl)carbamate] was tested, and the “PI3KA_Act Ki” value was 644 pM.
`C[C@H]1COCCN1c1nc(-c2cnc(N)nc2)c2c(n1)N(C1(C)CNC1)CC2.Cl` [Example 450, 5-{7-(3-methylazetidin-3-yl)-2-[(3S)-3-methylmorpholin-4-yl]-6,7-dihydro-5H-pyrrolo[2,3-d]pyrimidin-4-yl}pyrimidin-2-amine hydrochloride] was tested, and the “PI3KA_Act Ki” value was 167 pM.
With `CC(=O)N1CC(N2CCc3c(-c4cnc(N)nc4)nc(N4CCOC[C@@H]4C)nc32)C1` [Example 451, 1-(3-{4-(2-aminopyrimidin-5-yl)-2-[(3S)-3-methylmorpholin-4-yl]-5,6-dihydro-7H-pyrrolo[2,3-d]pyrimidin-7-yl}azetidin-1-yl)ethanone] the “PI3KA_Act Ki” value was 595 pM.
With `CC(=O)N1CC(C)(N2CCc3c(-c4cnc(N)nc4)nc(N4CCOC[C@@H]4C)nc32)C1` [Example 452, 1-(3-{4-(2-aminopyrimidin-5-yl)-2-[(3S)-3-methylmorpholin-4-yl]-5,6-dihydro-7H-pyrrolo[2,3-d]pyrimidin-7-yl}-3-methylazetidin-1-yl)ethanone] the “PI3KA_Act Ki” value was 90 pM.
For `CC(C)C(=O)N1CC(N2CCc3c(-c4cnc(N)nc4)nc(N4CCOC[C@@H]4C)nc32)C1` [Example 453, 1-(3-{4-(2-aminopyrimidin-5-yl)-2-[(3S)-3-methylmorpholin-4-yl]-5,6-dihydro-7H-pyrrolo[2,3-d]pyrimidin-7-yl}azetidin-1-yl)-2-methylpropan-1-one], the “PI3KA_Act Ki” value was 973 pM.
With `C[C@H]1COCCN1c1nc(-c2cnc(N)nc2)c2c(n1)N(C1CN(C(=O)C(C)(C)O)C1)CC2` [Example 454, 1-(3-{4-(2-aminopyrimidin-5-yl)-2-[(3S)-3-methylmorpholin-4-yl]-5,6-dihydro-7H-pyrrolo[2,3-d]pyrimidin-7-yl}azetidin-1-yl)-2-hydroxy-2-methylpropan-1-one] the “PI3KA_Act Ki” value was 387 pM.
